As a reminder, the IC50 is the concentration needed to halve the response being measured. The term Ki denotes the dissociation constant of the complex between target and ligand, obtained from inhibition or displacement. Lower therefore signals higher affinity. A word on the inhibition: it is the share of the control response that was lost under treatment. A low value points to little suppression. Broadly, the melting point is the temperature, or range, at which the solid turns liquid.

We go through 14 compounds from patent US6818646B2 (priority 2000, dated 2004).

Data set [1] in a line: In vivo testing for efficacy, procedure of Carter et al. As for the experimental part: Following the procedure disclosed by Carter et al., (Carter, A. J., Ballard, S. A., and Naylor, A. M.) in The Journal of Urology 1998, 160, 242-246, the compounds as listed in Table 7 were tested for in vivo efficacy, with results as tabulated below.
For data set [2], the target named is T1, PDEV (Homo sapiens, UniProt O76074).
T1 construct: PDEV was isolated from rabbit and human tissues according to the protocol described by Boolell et al; from tissue; host or cells: human tissue, homogenate supernatant fractionated on Mono Q
Nature of the data set: PDE assay: inhibition of PDEV isolated from human tissue. The note with it: for IC50: PDEV inhibitory activity. It is filed as biochemical. The protocol: (§1) Briefly, rabbit or human tissues were homogenized in an ice-cold buffer solution containing 20 mM HEPES (pH 7.2), 0.25M sucrose, 1 mM EDTA, and 1 mM phenylmethylsulphonyl fluoride (PMSF). The homogenates were centrifuged at 100,000 g for 60 minutes at 4° C. The supernatant was filtered through […] filter and loaded on a Pharmacia Mono Q anion exchange column (1 ml bed volume) that was equilibrated with 20 mM HEPES, 1 mM EDTA and 0.5 mM PMSF. After washing out unbound proteins, the enzymes were eluted with a linear gradient of 100-600 mM NaCl in the same buffer (35 to 50 ml total, depending on the tissue. Enzymes from the skeletal muscle, corpus cavernosum, retina, heart and platelet were eluted with 35, 40, 45, 50, and 50 ml respectively.) The column was run at a flow rate of 1 ml/min and 1 ml fractions were collected. The fractions comprising various PDE activities were pooled separately and used in later studies.
(§2) The assays were adapted to a 96-well format. The enzyme was assayed in 5 mM MgCl2, 15 mM Tris HCl (pH 7.4), 0.5 mg/ml bovine serum albumin, 1 μM cGMP or cAMP, 0.1 μCi [^3H]-cGMP or [^3H]-cAMP, and 2-10 μl of column elution. The total volume of the assay was 100 μl. The reaction mixture was incubated at 30° C. for 30 minutes. The reaction was stopped by boiling for 1 minute and then cooled down on ice. The resulting [^3H]5′-mononucleotides were further converted to uncharged [^3H]-nucleosides by adding 25 μl 1 mg/ml snake venom (Ophiophagus hannah) and incubating at 30° C. for 10 minute. The reaction was stopped by the addition of 1 ml Bio-Rad AG1-X2 resin slurry (1:3). All the charged nucleotides were bound by the resin and only uncharged [^3H]-nucleosides remained in the supernatant after centrifuging. An aliquot of 200 μl was taken and counted by liquid scintillation. PDE activity was expressed as pmol cyclic nucleotide hydrolyzed/min/ml of enzyme preparation.
(§3) Inhibitor studies were carried out in assay buffer with a final concentration of 10% DMSO.
(§4) The % inhibition of the maximum substrate conversion (by the enzyme in the absence of inhibitor) was calculated for each test compound concentration. Using GraphPad Prism's nonlinear regression analysis (sigmoidal dose response), the % inhibition vs log of the test compound concentration was plotted to determine the IC50. Under conditions where substrate concentration <<Km of the enzyme (Km=substrate concentration at which half of the maximal velocity of the enzyme is achieved), Ki is equivalent to the IC50 value.
(§5) Unless otherwise noted, PDEV inhibitory activities were measured using human tissue. The abbreviation “stereo” refers to the stereogenic configuration, the abbreviation “Rac” shall denote a racemic mixture.

Data set [3] concerns the target T1, PDEV. Nature of the data set: In vitro determination of Ki for phosphodiesterase inhibitors. It is filed as biochemical. To be noted: human tissue; given as 'Ki ='. The protocol: The assays were adapted to a 96-well format. Phosphodiesterase was assayed in 5 mM MgCl2, 15 mM Tris HCl (pH 7.4), 0.5 mg/ml bovine serum albumin, 30 nM ^3H-cGMP and test compound at various concentrations. The amount of enzyme used for each reaction was such that less than 15% of the initial substrate was converted during the assay period. For all measurements, the test compound was dissolved and diluted in 100% DMSO (2% DMSO in assay). The total volume of the assay was 100 μl. The reaction mixture was incubated at 30° C. for 90 minutes. The reaction was stopped by boiling for 1 minute and then immediately cooled by transfer to an ice bath. To each well was then added 25 μl 1 mg/ml snake venom (Ophiophagus hannah) and the reaction mixture incubating at 30° C. for 10 minute. The reaction was stopped by the addition of 1 ml Bio-Rad AG1-X2 resin slurry (1:3). An aliquot of 200 μl was taken and counted by liquid scintillation.
as §4, §5

The target of data set [4] is PDEV (Oryctolagus cuniculus, UniProt G1SX67). In words: PDE assay: inhibition of PDEV isolated from rabbit tissue. The note with it: PDEV inhibitory activity, rabbit tissue (footnote a). It is filed as biochemical. As for the experimental part:
as §1, §2, §3, §4, §5

Regarding `O=c1c2c([nH]c3ccccc13)[C@@H](c1ccc3c(c1)CCO3)N(c1ncc(-c3ccccn3)cn1)C2` [Compound 65, (R)-1,2,3,4-Tetrahydro-2-[5-(2-pyridinyl)-pyrimidin-2-yl]-3-(2,3-dihydrobenzofuranyl)-9H-pyrrolo-[3,4-b]quinolin-9-one], the Efficacy result in data set [1] is recorded as “Active”. Also, the half-inhibitory concentration (IC50) at PDEV [2] was 230 pM.
`Oc1c2c(nc3ccccc13)C(c1ccc3c(c1)OCO3)N(c1ccc(-n3ccnc3)cc1)C2` (racemic) [Compound 133, 3-Benzo[1,3]dioxol-5-yl-2-(4-imidazol-1-yl-phenyl)-1,2,3,4-tetrahydro-pyrrolo[3,4-b]quinolin-9-one]: at PDEV [3], the Ki was 1.75 nM.
`Cc1ncc(-c2cnc(N3Cc4c([nH]c5ccccc5c4=O)C3c3ccc4c(c3)CCO4)nc2)n1C` (stereo not drawn) [Compound 128, 3-(2,3-Dihydro-benzofuran-5-yl)-2-[5-(2,3-dimethyl-3H-imidazol-4-yl)-pyrimidin-2-yl]-1,2,3,4-tetrahydro-pyrrolo[3,4-β]quinolin-9-one]: at PDEV [3], affinity was put at a Ki of 0.3 nM.
With `O=c1c2c([nH]c3ccccc13)C(c1ccc3c(c1)OCO3)N(C(=S)n1ccnc1)C2` (racemic) [Compound 18, 1,2,3,4-Tetrahydro-2-(imidazol-1-yl)thiocarbonyl-3-(3,4-methylenedioxyphenyl)-9H-pyrrolo-[3,4-b]quinolin-9-one], the melting point is 211 to 215 °C (dec.). For the same compound, the inhibition at 10 µM against PDEV [2] (10 μM test compound) is 54%.
Compound `COc1ccc(C2NCc3c2[nH]c2ccccc2c3=O)cc1OC` (racemic) [Compound 12, 1,2,3,4-Tetrahydro-3-(3,4-dimethoxyphenyl)-9H-pyrrolo-[3,4-b]quinolin-9-one] showed a melting point of 223 to 225 °C. Besides, the IC50 on PDEV [4] stood at 549000 pM.
Regarding `COc1ccc(-c2cnc(N3Cc4c([nH]c5ccccc5c4=O)[C@H]3c3ccc4c(c3)CCO4)nc2)cc1` [Compound 66, (R)-1,2,3,4-Tetrahydro-2-[5-(4-methoxyphenyl)-pyrimidin-2-yl]-3-(2,4-dihydrobenzofuranyl)-9H-pyrrolo-[3,4-b]quinolin-9-one], the Efficacy result in data set [1] is “Active”. Moreover, half-maximal inhibition against PDEV [2] (IC50) was put at 190 pM.
As to `COc1ccc(-c2cnc(N3Cc4c([nH]c5ccccc5c4=O)[C@H]3c3ccc4c(c3)OCO4)nc2)cc1OC` [Compound 36, (R)-1,2,3,4-Tetrahydro-2-[5-(3,4-dimethoxyphenyl)-pyrimidin-2-yl]-3-(3,4-methylenedioxyphenyl)-9H-pyrrolo-[3,4-b]quinolin-9-one], the Efficacy result in data set [1] is “Active”. The compound further returned an IC50 against PDEV [2] of 75 pM.
The compound `Oc1c2c(nc3ccccc13)C(c1ccc3occc3c1)N(c1ncc(-c3ccccn3)cn1)C2` (racemic) [Compound 126, 3-Benzofuran-5-yl-2-(5-pyridin-2-yl-pyrimidin-2-yl)-1,2,3,4-tetrahydro-pyrrolo[3,4-b]quinolin-9-one] registered a Ki at PDEV [3] of 0.138 nM.
`Cl.O=C(OCc1ccncc1)N1Cc2c([nH]c3ccccc3c2=O)C1c1ccc2c(c1)OCO2` (racemic) [Compound 37, 1,2,3,4-Tetrahydro-2-[(4-pyridinyl)methyloxycarbonyl]-3-(3,4-methylenedioxyphenyl)-9H-pyrrolo-[3,4-b]quinolin-9-one, hydrochloride salt]: the Efficacy result in data set [1] is reported as “Active”. Moreover, the IC50 against PDEV [2] is 5720 pM.
In the case of `Oc1c2c(nc3ccccc13)C(c1ccc3c(c1)CCO3)N(c1ccc(-c3ccccn3)cn1)C2` (racemic) [Compound 134, 2-[2,3′]Bipyridinyl-6′-yl-3-(2,3-dihydro-benzofuran-5-yl)-1,2,3,4-tetrahydro-pyrrolo[3,4-b]quinolin-9-one], the affinity on PDEV [3], expressed as Ki, was 1.1 nM.
`COc1ccc(-c2cnc(N3Cc4c([nH]c5ccccc5c4=O)C3c3ccc4c(c3)OCO4)nc2)cc1` (racemic) [Compound 2, 1,2,3,4-Tetrahydro-2-[5-(4-methoxyphenyl)-pyrimidin-2-yl]-3-(3,4-methylene-dioxyphenyl)-9H-pyrrolo-[3,4-b]quinolin-9-one] gave a melting point of 325 to 327 °C. Also, on PDEV [2], it took 191 pM to reach half-maximal inhibition (IC50).
In the case of `O=c1c2c([nH]c3ccccc13)C(c1ccc3c(c1)CCO3)N(c1ccccn1)C2` (racemic) [Compound 129, 3-(2,3-Dihydro-benzofuran-5-yl)-2-pyridin-2-yl-1,2,3,4-tetrahydro-pyrrolo[3,4-b]quinolin-9-one], at PDEV [3], the Ki stood at 0.65 nM.
At PDEV [3], `O=c1c2c([nH]c3ccccc13)C(c1ccc3c(c1)CCO3)N(c1ccccn1)C2` (stereo not drawn) [Compound 136, 3-(2,3-Dihydro-benzofuran-5-yl)-2-pyridin-2-yl-1,2,3,4-tetrahydro-pyrrolo[3,4-b]quinolin-9-one] displayed a Ki of 0.18 nM.
Compound `O=c1c2c([nH]c3ccccc13)C(c1ccc3c(c1)CCO3)N(c1ncc(-c3cccc[n+]3[O-])cn1)C2` (stereo not drawn) [Compound 125, 3-(2,3-Dihydro-benzofuran-5-yl)-2-[5-(1-oxy-pyridin-2-yl)-pyrimidin-2-yl]-1,2,3,4-tetrahydro-pyrrolo[3,4-b]quinolin-9-one] yielded a Ki at PDEV [3] of 0.144 nM.
